Laboratory results: PMC11477294, “In Vitro Profiling of the Antiviral Peptide TAT-I24” (International Journal of Molecular Sciences, 2024)
Where a SMILES comes first, the peptide text is derived from it.

Assays:
[1] = system: baculovirus expressing luciferase under the control of the CMV promoter; assay type: cell-based; conditions: luciferase reporter gene expression in HEK293 cells transduced with baculovirus-luc, MOI 5, 24 h post-infection; 1:3 peptide dilution series; non-linear regression; n = 8
Protocol: (§1) A baculovirus expressing luciferase under the control of the CMV promoter has been described previously. HEK293 cells were seeded at a density of 2 × 10^4 cells/100 µL per well in 96-well plates (Sarstedt, Germany). On the next day, cells were treated with a 1:3 dilution series of peptides and, without further pre-incubation, subsequently infected with baculovirus–luc at a multiplicity of infection (MOI) of 5. Cells were lysed 24 h post-infection using 20 µL Cell Culture Lysis Reagent (Promega, Mannheim, Germany). From the lysates, 10 µL was transferred to white 96-well plates, and luciferase was recorded using a luciferase assay system and a GloMax®-Multi Detection System (Promega, Mannheim, Germany).

HEK293 cells = experiment: Cell viability assay (CellTiter-Blue) in HEK293 cells; assay type: cell-based; conditions: 72 h at 37 °C, 3-fold dilution series starting with 20 µM, triplicate, non-linear regression (curve fit)
Protocol: HEK293 cells were seeded at a density of 2.5 × 10^3 cells/100 µL per well in a 96-well plate (Sarstedt, Germany). In addition, a serial 1:2 dilution of the cell suspension was added to each plate to generate a standard curve. On the next day, cells were treated with serial 1:3 peptide dilutions in triplicate and incubated for 72 h at 37 °C. Then, 20 µL of CellTiter-Blue® Cell Viability Assay (Promega, Mannheim, Germany) was added to each well and incubated at 37 °C for a further 1–2 h. Fluorescence was recorded using a GloMax®-Multi Detection System (Promega, Mannheim, Germany). The percentage of viable cells was calculated from the cell dilution series from each plate by linear regression analysis. The selectivity index was calculated using the following formula: SI = CC50/IC50.
Figure S1. Cell viability assay in HEK293 cells in the presence of peptides. Cells were incubated with 3 -fold dilution series of peptides starting with a concentration of 20 µM for 72 hours and measured using the Cell Titer Blue assay. Curve fitting of % viable cells of untrea ted control was performed using Graph Pad Prism softwar e.
(1 picture or pasted object on this page, not shown here)

human PBMCs = experiment: LPS-induced cytokine release in PBMCs (ELISA); assay type: cell-based; conditions: three peptide concentrations, 0.25 µg/mL LPS, 24 h, duplicate, versus control without peptides
Protocol: Isolation of PBMCs was performed by adding 3 mL blood on a 3 mL layer of Histopaque-1077 (Sigma Aldrich, Schnelldorf, Germany) and centrifuged at 400× g for 30 min at room temperature with the lowest brake and acceleration settings. After centrifugation, plasma was aspirated and the PBMC layer was transferred to a 15 mL conical centrifugation tube. Cells were resuspended in 10 mL PBS, followed by centrifugation at 250× g for 10 min. The cell pellet was resuspended in 5 mL PBS, followed by centrifugation at 250× g for 10 min for a total of three times. Finally, the pellet was resuspended in 1 mL cell culture medium supplemented with 10% FCS. Cells were then seeded in a 48-well plate at 2.5 × 10^5 cells/125 µL per well, treated with 125 µL peptide dilutions in the absence and presence of 0.25 µg/mL lipopolysaccharide (LPS) from Escherichia coli (Sigma-Aldrich, Schnelldorf, Germany) and incubated at 37 °C for 24 h. Supernatants were then collected for subsequent analysis by ELISA.
ELISA was performed using human tumor necrosis factor-α (TNF-α) and interleukin-6 (IL-6) ELISA MAX^TM De Luxe Sets from Biolegend (San Diego, CA, USA) according to the manufacturer’s instructions. Supernatants were diluted 1:5 for TNF-α and 1:500 for IL-6.

[2] = Peptide stability in PBS or PBS with 10% FCS, read out as antiviral activity; assay type: in vitro ADME; conditions: 48 h at 37 °C versus −20 °C, two independent incubations in duplicate
Protocol: as §1
NIH/3T3 cells were seeded at a density of 2 × 10^4 cells/100 µL per well in a 96-well plate (Sarstedt, Germany) and allowed to attach overnight. On the next day, cells were treated with a 1:3 dilutions series of peptides and, without further pre-incubation, subsequently infected with the MCMV strain delm157-luc rep. The MCMV stock was prepared and quantified as previously described. […] From the lysates, 10 µL was transferred to white 96-well plates, and luciferase was recorded using a Luciferase Assay System and a GloMax®-Multi Detection System (Promega, Mannheim, Germany). […]

[3] = Oligomerization/aggregation by SDS-PAGE with Coomassie stain; assay type: physicochemical; conditions: 48 h at 37 °C in PBS or PBS with 10% FCS
Protocol: For determination of peptide stability, 20 µg peptide was added to 50 µL PBS or PBS with 10% FCS and incubated for 48 h at 37 °C or stored at −20 °C. For non-reducing conditions, 4 µL peptide solution was mixed with 1 µL H2O and 5 µL Novex™ Tricine SDS Sample Buffer (2×) (ThermoFisher, Darmstadt, Germany). For reducing conditions, 4 µL peptide solution was mixed with 1 µL NuPAGE™ Sample Reducing Agent (10×) (Invitrogen by Thermo Fisher Scientific) and 5 µL Novex™ Tricine SDS Sample Buffer (2×). Samples were then heated to 85 °C for 10 min. A total of 10 µL was then loaded onto each well of 10–20% Novex™ Tricine, 1.0 mm, Mini Protein Gels (Invitrogen/ThermoFisher, Waltham, MA, USA) and run in 1× Novex™ Tricine SDS Running Buffer (Invitrogen/ThermoFisher, Waltham, MA, USA) for 90 min at 100 V. After electrophoresis, gels were fixed with 40% methanol and 10% acetic acid followed by staining with 0.1% Coomassie brilliant blue R250 (Sigma-Aldrich, Schnelldorf, Germany) in 40% methanol and 10% acetic acid for one hour and destaining using fixing solution.

cells = conditions: not associated with cell toxicity; cited from earlier work

CC(C)C[C@H](NC(=O)[C@H](CS)NC(=O)[C@H](CCC(N)=O)NC(=O)[C@@H]1CCCN1C(=O)[C@@H]1CCCN1C(=O)[C@H](CCCNC(=N)N)NC(=O)[C@H](CCCNC(=N)N)NC(=O)[C@H](CCCNC(=N)N)NC(=O)[C@H](CCC(N)=O)NC(=O)[C@H](CCCNC(=N)N)NC(=O)[C@H](CCCNC(=N)N)NC(=O)[C@H](CCCCN)NC(=O)[C@H](CCCCN)NC(=O)[C@H](CCCNC(=N)N)NC(=O)CN)C(=O)N[C@@H](C)C(=O)N[C@@H](Cc1ccccc1)C(=O)N[C@@H](Cc1ccc(O)cc1)C(=O)N[C@@H](C)C(=O)N[C@@H](CS)C(=O)N[C@@H](Cc1ccccc1)C(=O)N[C@@H](CS)C(=O)O [TAT-I24] (H-GRKKRRQRRRPPQCLAFYACFC-OH)
IC50 [1]: 50 nM
HEK293 CC50 (HEK293 cells): 124000 nM
LPS-induced IL-6 release (human PBMCs): No significant differences
LPS-induced TNF-α release (human PBMCs): No significant differences
antiviral activity after incubation of peptide with serum (serum stability) ([2]; 20 µg peptide in 50 µL PBS with 10% FCS, read-out baculovirus/HEK293 (24 h) and MCMV/NIH/3T3 (72 h) luciferase): slight reduction in antiviral activity
antiviral activity after incubation of peptide without serum ([2]; 20 µg peptide in 50 µL PBS, read-out baculovirus/HEK293 and MCMV/NIH/3T3 luciferase): curve shaping for both peptides was altered
oligomer formation, SDS-PAGE under reducing conditions ([3]; 10–20% Tricine gel, Coomassie Brilliant Blue stain): additional weak higher molecular weight smear around 45 kDa
oligomer formation, SDS-PAGE under non-reducing conditions ([3]; SDS loading buffer without reducing agent, Coomassie stain): only faint bands of monomers
concentration with morphological changes such as cell aggregation (cells): > 10 µM
